# Data from patent publication US20250000850A1, “COMPOSITION USED TO PREVENT OR SUPPRESS REFEEDING SYNDROME” (OTSUKA PHARMACEUTICAL FACTORY, INC., priority 2021, published 2025).
# Assay: Effect of rapamycin on blood phosphorus concentration after refeeding to protein-undernourished rats
# Assay type: in vivo, male Wistar rats
# Conditions: rapamycin 2 mg/mL at 0.75 mL/kg i.p., mean ± SD, n=8
# Method: Using male Wistar rats (7 weeks old at time of purchase; Charles River Laboratories Japan, Inc.), a group of rats fed with a purified diet having a protein content of 2.5% (referred to below as “low-protein diet”) for at least 3 weeks, and a group of rats fed with a purified diet having a protein content of 20% (referred to below as “normal diet”) for at least 3 weeks were prepared. […] Each animal had access to tap water ad libitum for at least 3 weeks. After fasting with ad libitum access to water for 24 hours, jugular vein catheterization was performed under isoflurane anesthesia, and the other end of the catheter was passed under the skin, exited from the back, and connected to a syringe containing physiological saline via a harness. The rats were then kept in individual metabolic cages with the catheter being open. Post-operatively, an antibiotic (ampicillin) was injected intramuscularly at a dose of 5 mg/100 μL/rat. After recovery from anesthesia, blood (400 μL) was collected from the catheter placed in the jugular vein, then injected into a tube containing sodium heparin, and stored on ice. The blood was promptly fractionated to obtain plasma, and the inorganic phosphorus concentration in the plasma was promptly measured using a Fuji Dry Chem Slide (produced by Fuji Film Corporation). The rats were grouped into predetermined groups using the obtained measurements and body weight data as indices.
# The physiological saline was replaced with a nutrient infusion preparation or an electrolyte preparation at 5 p.m. to start administration to the animals. The nutrient infusion preparation used was Elneopa-NF No. 2 infusion (produced by Otsuka Pharmaceutical Factory Co., Ltd.). The electrolyte formulation used was an electrolyte infusion preparation composed of the electrolyte contained in Elneopa-NF No. 2 infusion. […] Immediately before administering these preparations, either a solvent (dimethyl sulfoxide, produced by Fujifilm Wako Pure Chemicals Corporation; referred to below as “DMSO”) or a solution of 2 mg/mL of rapamycin (produced by Tokyo Chemical Industry Co., Ltd.) whose side effect of inhibiting muscle synthesis was known was intraperitoneally administered by bolus at a dose of 0.75 mL/kg in each case. […]
# Starting at 9 a.m. on the day after the start of administration, blood was collected from the abdominal aorta by using a syringe under isoflurane anesthesia. […] The concentration of inorganic phosphorus in the plasma was determined by an enzymatic method (Determiner L, produced by Hitachi Chemical Diagnostics Systems Co., Ltd.).
structure (smiles),measurement,setting,value
CO[C@H]1C[C@@H]2CC[C@@H](C)[C@@](O)(O2)C(=O)C(=O)N2CCCC[C@H]2C(=O)O[C@H]([C@H](C)C[C@@H]2CC[C@@H](O)[C@H](OC)C2)CC(=O)[C@H](C)/C=C(\C)[C@@H](O)[C@@H](OC)C(=O)[C@H](C)C[C@H](C)/C=C/C=C/C=C/1C [rapamycin],Plasma phosphorus concentration after administration,"LPD (electrolyte + rapamycin): low-protein diet rats, electrolyte infusion 16 h",6.1 ± 0.6 mg/dL
same,Plasma phosphorus concentration after administration,"LPD (refeeding + rapamycin): low-protein diet rats, nutrient infusion 16 h",4.2 ± 0.4 mg/dL
same,Plasma phosphorus concentration after administration,"NPD (electrolyte + rapamycin): normal diet rats, electrolyte infusion 16 h",6.4 ± 0.4 mg/dL
same,Plasma phosphorus concentration after administration,"NPD (refeeding + rapamycin): normal diet rats, nutrient infusion 16 h",4.7 ± 0.4 mg/dL
